Experiments:
[1] = biological target: GluN1/2A NMDARs (Rattus norvegicus, UniProt P35439+Q00959); format: cell-based; conditions: 10 μM compound; 100 μM NMDA plus 10 μM glycine; voltage pulse to +60 mV
[2] = biological target: GluN1/2A receptors (Rattus norvegicus, UniProt P35439+Q00959); format: cell-based; conditions: for δ, fraction of the total transmembrane voltage field felt by the blocker at its binding site: calculated from V0 by Equation 4; for Hill coefficient (nH): tsA201 cells, GluN1/2A, 1 mM glutamate, −65 mV, fit of Equation 2; for V0, change in voltage that results in an e-fold change in the IC50: roughly twice the IC50 of each drug (3 μM 5, 5 μM 7, 2 μM 8, 1 μM 11), 9 voltages −105 to +55 mV, fit of Equation 3
Chain of GluN1/2A receptors (Q00959 23-1464, other chains not shown): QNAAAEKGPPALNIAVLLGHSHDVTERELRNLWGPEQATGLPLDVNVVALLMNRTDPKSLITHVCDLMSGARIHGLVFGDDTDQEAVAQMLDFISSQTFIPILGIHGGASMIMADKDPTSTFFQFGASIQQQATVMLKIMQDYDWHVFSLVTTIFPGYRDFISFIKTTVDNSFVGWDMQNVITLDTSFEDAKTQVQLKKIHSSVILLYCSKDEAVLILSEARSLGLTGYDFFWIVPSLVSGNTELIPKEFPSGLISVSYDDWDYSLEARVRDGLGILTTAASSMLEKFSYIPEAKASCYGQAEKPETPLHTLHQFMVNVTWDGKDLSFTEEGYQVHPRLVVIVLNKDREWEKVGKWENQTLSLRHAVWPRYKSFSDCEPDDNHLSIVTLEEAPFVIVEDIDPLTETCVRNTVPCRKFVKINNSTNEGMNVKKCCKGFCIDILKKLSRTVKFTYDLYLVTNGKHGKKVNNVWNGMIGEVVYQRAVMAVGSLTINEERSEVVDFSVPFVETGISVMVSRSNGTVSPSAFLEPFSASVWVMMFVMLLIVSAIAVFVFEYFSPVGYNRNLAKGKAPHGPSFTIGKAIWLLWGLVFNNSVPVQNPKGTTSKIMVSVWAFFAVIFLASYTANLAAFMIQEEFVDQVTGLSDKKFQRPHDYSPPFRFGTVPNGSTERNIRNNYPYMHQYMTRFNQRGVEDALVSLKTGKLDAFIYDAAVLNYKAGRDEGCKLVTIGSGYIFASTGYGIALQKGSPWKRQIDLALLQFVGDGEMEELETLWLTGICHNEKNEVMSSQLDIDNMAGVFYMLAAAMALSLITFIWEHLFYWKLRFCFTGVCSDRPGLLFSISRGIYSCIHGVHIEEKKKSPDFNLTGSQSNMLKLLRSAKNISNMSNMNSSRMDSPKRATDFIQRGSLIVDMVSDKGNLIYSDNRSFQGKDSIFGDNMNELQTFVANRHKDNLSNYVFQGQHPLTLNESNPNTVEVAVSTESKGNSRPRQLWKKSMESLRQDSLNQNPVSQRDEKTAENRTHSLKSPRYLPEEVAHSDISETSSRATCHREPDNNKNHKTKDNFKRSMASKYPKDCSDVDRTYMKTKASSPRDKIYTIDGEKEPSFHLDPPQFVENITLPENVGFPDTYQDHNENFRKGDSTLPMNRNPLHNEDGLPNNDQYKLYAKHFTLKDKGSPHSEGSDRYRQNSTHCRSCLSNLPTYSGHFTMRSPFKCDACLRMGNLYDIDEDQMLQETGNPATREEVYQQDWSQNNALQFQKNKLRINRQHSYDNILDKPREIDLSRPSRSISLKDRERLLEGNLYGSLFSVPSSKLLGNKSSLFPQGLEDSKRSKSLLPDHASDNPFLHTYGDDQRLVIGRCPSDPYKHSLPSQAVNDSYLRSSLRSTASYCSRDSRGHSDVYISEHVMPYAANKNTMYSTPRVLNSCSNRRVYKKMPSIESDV

Chain of GluN1/2A NMDARs (Q00959 23-1464, other chains not shown): as above

| Structure (SMILES) | percentage block at +60 mV [1] [%] | IC50 [2] [nM] | δ, fraction of the total transmembrane voltage field felt by the blocker at its binding site [2] | Hill coefficient (nH) [2] | V0, change in voltage that results in an e-fold change in the IC50 [2] [mV] |
| --- | --- | --- | --- | --- | --- |
| CC12CC3CC(C)(C1)CC(N)(C3)C2 [Compound 5, memantine, reference compound] | 8.1 ± 4.0 | 1840 ± 390 | 0.91 ± 0.08 | 1.07 ± 0.27 |  |
| CC12CC3CC1(C)C1(C)CC3(N)CC21C.Cl [Compound 7, (3,4,8,9-Tetramethyltetracydo[4.4.0.0^3,9.0^4,8]dec-1-yl)amme hydrochloride] | 2.4 ± 5.1 |  | 0.99 ± 0.05 | 0.98 ± 0.08 | 26.5 ± 1.8 |
| CC12CC3CC1(C)C1(C)CC3(CN)CC21C.Cl [Compound 8, (3,4,8,9-Tetramethyltetracydo[4.4.0.0^3,9.0^4,8]dec-1-yl)methylamine hydrochloride] | 14.7 ± 4.5 |  | 0.87 ± 0.05 | 1.01 ± 0.11 | 29.9 ± 1.9 |
